{
  "source": "patent US4127529A",
  "about": "“Novel eicosapeptides, intermediates therefor and pharmaceutical compositions and methods employing said eicosapeptides” (priority 1977, dated 1978)",
  "origin": "cited, not measured here",
  "key": {"[1]": {"details": "injected directly into the brain of the rat"}, "[2]": {"test_system": "brain opiate receptor sites", "details": "natural peptide"}},
  "data": [
    {"substance": "H-Tyr-Gly-Gly-Phe-Met-OH [methionine enkephalin]", "values": [
      {"measurement": "analgesic activity", "setting": "[1]", "result": "only weak analgesic agent of short duration"},
      {"measurement": "binding to partially purified brain opiate receptor sites", "setting": "[2]", "result": "binds stereo-specifically"}
    ]}
  ]
}
